Patent publication US20090203773A1, “Compounds for the Treatment of Non-Autoimmune Type 2 Diabetes Mellitus and/or Syndrome X” (priority 2005, published 2009)

Experiments:
C3H10T1/2 cells [1] = experiment: Glucose uptake of adipocytes (radioactive 2-deoxyglucose, basal, without insulin); assay type: cell-based; conditions: 48-h treatment; for Basal glucose uptake (% of control ± SEM): absence of insulin, DMSO control = 100%; for Basal glucose uptake, result in words: different concentrations
Protocol: C3H10T1/2 cells (ATCC CCL-226) were grown for 5 days to confluence in DMEM supplemented with 10% FBS medium and induced with a mixture of insulin, dexamethasone and 3-isobutyl-1-methylxanthine to differentiate into adipocytes. Nine days after the beginning of induction, cells were treated for 48-h with the compound of the formula I-13 at different concentrations as shown in Table 1. Glucose uptake was determined using radioactive 2-deoxyglucose (10 μM 2-DG in HBS+0.5 μCi/ml of 3[H]-2-DG), measuring glucose uptake in the absence of insulin. Basal glucose uptake was increased by 48-h treatment with the compound of the formula I-13 in a dose-dependent manner (Table 1). Growing, induction and treatment of C3H10T1/2 cells were exactly as described in Example 1, with the exception that the compound of the formula I-15 at different concentrations was used instead of the compound of the formula I-13. […] Control: C3H10T1/2 cells treated for 48 h with DMSO at the same concentration as compound-treated cells and set at 100%

C3H10T1/2 cells [2] = experiment: Differentiation of adipocytes (oil Red O staining); assay type: cell-based; conditions: for Adipocyte differentiation, oil Red O, Mean OD ± SEM: 10-day treatment, absorbance at 540 nm; for Differentiation of the cells into adipocytes, result in words: co-treatment with insulin, compared with insulin alone
Protocol: C3H10T1/2 cells were grown to confluence as described in Example 1, then treated for 10 days with insulin alone (negative control) or with a mixture of insulin and the compound of the formula I-13 at different concentrations (see Table 2), with re-feeding with fresh medium and compounds every 48-h. After 10-days of treatment, the cells were stained with oil Red O as follows: cells were washed 2× in PBS and fixed in 10% formalin at room temperature for 1 h. After removal of formalin, 200 μl of oil Red O staining solution (3:2 mixture of 0.5% w/v oil Red O stock solution and water) was applied to each well. The cells were incubated for 20 min at room temperature, washed twice in 2×PBS and incubated for 10 min with 300 μl of isopropanol/well for oil Red O extraction. Quantification of oil Red O was determined by measuring absorbance at 540 nm (mean OD). […] C3H10T1/2 cells were grown and treated as described in Example 4 with the exception that the compound of the formula I-14 was used instead of the compound of the formula I-13. The measurement of adipocyte differentiation using the oil Red O assay was performed as described in Example 4. […] C3H10T1/2 cells were grown and treated as described in Example 4 with the exception that the compound of the formula I-15 was used instead of the compound of the formula I-13. The measurement of adipocyte differentiation using the oil Red O assay was performed as described in Example 4.

C57BLKS/J db/db mice = experiment: Glucose tolerance / blood glucose in a 14-day db/db mouse study (OGTT); assay type: in vivo
Protocol: The efficacy of the compound of the formula I-13 on glucose tolerance was tested in a 14-day study in C57BLKS/J db/db mice (n=10/group), a model of late type 2 diabetes mellitus with severe hyperglycemia.
Male db/db mice were obtained from Jackson Laboratory (Bar Harbor, Me., USA). Adult mice aged 8 weeks were used in the experiment. Mice were housed individually in plastic cages with bedding and allowed free access to standard rodent food and tap water. The animal rooms were controlled for temperature (24° C.), humidity (55%), and light (12-h light-dark cycle). The animals were randomized in two groups and the compound of the formula I-13 was administered orally to one of the groups for 14 days at a dose of 200 mg/kg BW/day. After 14 days of treatment the concentration of glucose was determined in blood from fed animals, i.e., animals which were not restricted from food. After a period of 10 days of treatment an oral glucose tolerance test (OGTT) was performed. For the OGTT mice were fasted overnight and then a 1-g glucose/kg BW solution was orally administered. Blood samples were taken before and 15, 30, 45, 60, 90, 120, 150, 180 min after the glucose challenge for determination of blood glucose levels and then the area under the curve (AUC) was determined. Blood glucose was measured by a glucose analyzer (Glucotrend Premium, Roche Diagnostics, Rotkreuz, Switzerland). The glucose and the free fatty acid (FFA) levels of fed animals (see above) were lowered after 14 days of treatment with the compound of the formula I-13. After 10 days of treatment with the compound of the formula I-13 the glucose levels of fasted animals, i.e., animals with an overnight fasting (see above) were decreased as compared to the untreated control group.

[3] = Insulin 1 × 10^−7 M + compound 1 × 10^−5 M
[4] = 200 mg/kg BW/day orally, after 14 days, fed animals

## CC1(COc2ccc(CC3SC(=O)NC3=O)cc2)CCCCC1 (stereo not shown) [Ciglitazone, reference compound]
C3H10T1/2 cells [1]; 5 × 10^−5 M
  Basal glucose uptake (% of control ± SEM): 496.178 ± 61.86 % of control

## COc1ccc(C(=O)/C=C/c2c(CCN(C)C(C)=O)cc3c(c2OC)OCO3)cc1 [I-13]
C3H10T1/2 cells [1]; 1 × 10^−5 M
  Basal glucose uptake (% of control ± SEM): 94.58 ± 0.95 % of control
C3H10T1/2 cells [1]; 1 × 10^−6 M
  Basal glucose uptake (% of control ± SEM): 97.6 ± 22.9 % of control
C3H10T1/2 cells [1]; 2.4 × 10^−5 M
  Basal glucose uptake (% of control ± SEM): 128.6 ± 0.89 % of control
C3H10T1/2 cells [1]; 5 × 10^−4 M
  Basal glucose uptake (% of control ± SEM): 194.058 ± 0.05 % of control
C3H10T1/2 cells [1]
  Basal glucose uptake, result in words: increased
C3H10T1/2 cells [2]; [3]
  Adipocyte differentiation, oil Red O, Mean OD ± SEM: 0.69 ± 0.019
C3H10T1/2 cells [2]
  Differentiation of the cells into adipocytes, result in words: higher differentiation
C57BLKS/J db/db mice; 200 mg/kg BW/day orally, OGTT (1 g glucose/kg BW) on day 10, 0-180 min
  Glucose AUC: 54295
C57BLKS/J db/db mice; 200 mg/kg BW/day orally, after 10 days, overnight fasting
  Blood Glucose Fasted: 135 mg/dL
C57BLKS/J db/db mice; [4]
  Blood Glucose Fed: 771 mg/dL
  FFA: 12.38 mg/dL
C57BLKS/J db/db mice; 200 mg/kg BW/day, OGTT 1 g glucose/kg body weight on day 10
  Glucose AUC of an OGTT, result in words: significantly reduced
C57BLKS/J db/db mice; 200 mg/kg BW/day, after 10 days, compared to untreated control group
  Glucose levels of fasted animals, result in words: decreased
C57BLKS/J db/db mice; 200 mg/kg BW/day, after 14 days
  Glucose and free fatty acid (FFA) levels of fed animals, result in words: lowered
C57BLKS/J db/db mice; 200 mg/kg BW/day, day 10, compared with control group
  Blood glucose levels during the OGTT, result in words: lower at all time points

## COc1ccc(C(=O)C=Cc2cccc(OC(=O)C=Cc3ccccc3)c2)cc1 [I-14]
C3H10T1/2 cells [2]; [3]
  Adipocyte differentiation, oil Red O, Mean OD ± SEM: 0.45 ± 0.037
C3H10T1/2 cells [2]
  Differentiation of the cells into adipocytes, result in words: higher differentiation

## COc1ccc(/C=C/C(=O)c2ccc(OC(=O)c3ccccc3)cc2)cc1OC [I-15]
C3H10T1/2 cells [1]; 1 × 10^−5 M
  Basal glucose uptake (% of control ± SEM): 133.28 ± 23.4 % of control
C3H10T1/2 cells [1]; 1 × 10^−6 M
  Basal glucose uptake (% of control ± SEM): 105.37 ± 2.21 % of control
C3H10T1/2 cells [1]; 2 × 10^−4 M
  Basal glucose uptake (% of control ± SEM): 142.84 ± 18.05 % of control
C3H10T1/2 cells [1]; 5 × 10^−5 M
  Basal glucose uptake (% of control ± SEM): 116.17 ± 15.96 % of control
C3H10T1/2 cells [1]
  Basal glucose uptake, result in words: increase
C3H10T1/2 cells [2]; [3]
  Adipocyte differentiation, oil Red O, Mean OD ± SEM: 0.53 ± 0.025
C3H10T1/2 cells [2]; Insulin 1 × 10^−7 M + compound 2 × 10^−4 M
  Adipocyte differentiation, oil Red O, Mean OD ± SEM: 0.34 ± 0.087
C3H10T1/2 cells [2]; Insulin 1 × 10^−7 M + compound 5 × 10^−5 M
  Adipocyte differentiation, oil Red O, Mean OD ± SEM: 0.53 ± 0.017
C3H10T1/2 cells [2]
  Differentiation of the cells into adipocytes, result in words: higher differentiation

## Insulin
C3H10T1/2 cells [2]; Insulin 1 × 10^−7 M alone (negative control)
  Adipocyte differentiation, oil Red O, Mean OD ± SEM: 0.28 ± 0.03
